In US7737155B2, “Nitrogen-containing heterocyclic compounds and methods of use thereof” (Schering Corporation, priority 2005, dated 2010):

target: recombinant human nicotinic acid receptor (NAR) (Homo sapiens, UniProt Q8TDS4); experiment: Nicotinic Acid Receptor Assay: inhibition of forskolin-stimulated cAMP accumulation in CHO cells (MesoScale Discovery cAMP kit); format: cell-based; settings: CHO cells expressing recombinant human NAR; forskolin-stimulated cAMP; read-out: NA EC50 camp
How it was run: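 Compounds were diluted in PBS containing 6 μM forskolin and incubated with cells for 30 min at room temperature. cAMP was quantified by the MesoScale kit against an on-plate standard curve.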

Sequence of recombinant human nicotinic acid receptor (NAR) (Q8TDS4 whole entry): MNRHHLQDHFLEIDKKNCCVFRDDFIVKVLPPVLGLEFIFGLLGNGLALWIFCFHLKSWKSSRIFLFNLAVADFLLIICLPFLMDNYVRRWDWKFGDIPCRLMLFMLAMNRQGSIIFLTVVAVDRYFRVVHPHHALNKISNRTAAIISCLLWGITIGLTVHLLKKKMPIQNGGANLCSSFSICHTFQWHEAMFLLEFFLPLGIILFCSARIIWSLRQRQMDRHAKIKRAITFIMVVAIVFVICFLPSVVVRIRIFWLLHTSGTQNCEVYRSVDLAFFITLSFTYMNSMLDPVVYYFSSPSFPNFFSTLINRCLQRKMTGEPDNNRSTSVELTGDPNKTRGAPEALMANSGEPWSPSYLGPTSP

Row | Structure (SMILES) | EC50 [nM]
1 | CCc1cc(=O)oc2nc(OCCCOc3ccccc3)[nH]c(=O)c12 [Compound 596] | 100 to 1000
2 | CCc1cc(=O)oc2nc(OCCOc3cccc(C)c3)[nH]c(=O)c12 [Compound 598] | 100 to 1000
3 | CCc1cc(=O)oc2nc(OCC(C)(O)c3ccccc3)[nH]c(=O)c12 (stereo not drawn) [Compound 599] | 100 to 1000
4 | CCc1cc(=O)oc2nc(OCCOc3ccc(Br)cc3)[nH]c(=O)c12 [Compound 600] | > 1000
5 | CCc1cc(=O)oc2nc(OCC3CCCO3)[nH]c(=O)c12 (stereo not drawn) [Compound 601] | > 1000
6 | CCc1cc(=O)oc2nc(OCCOc3cc(C(F)(F)F)ccn3)[nH]c(=O)c12 [Compound 602] | 100 to 1000
7 | CCc1cc(=O)oc2nc(OCC(=O)c3ccccc3)[nH]c(=O)c12 [Compound 603] | 100 to 1000
8 | CCc1cc(=O)oc2nc(OCC3=Cc4ccccc4S3(=O)=O)[nH]c(=O)c12 [Compound 604] | 100 to 1000
9 | CCc1cc(=O)oc2nc(OC3CCSCC3)[nH]c(=O)c12 [Compound 605] | > 1000
10 | CCc1cc(=O)oc2nc(OCCOC3CCCC3)[nH]c(=O)c12 [Compound 606] | > 1000
11 | CCc1cc(=O)oc2nc(OC(C)COC)[nH]c(=O)c12 (stereo not drawn) [Compound 607] | 100 to 1000
12 | CCc1cc(=O)oc2nc(OCc3cnc(Br)s3)[nH]c(=O)c12 [Compound 608] | 100 to 1000
13 | Cc1cccc(COc2nc3oc(=O)cc(Cc4ccccc4)c3c(=O)[nH]2)n1 [Compound 609] | > 1000
14 | CCc1cc(=O)oc2nc(OCCOC3CCCCC3)[nH]c(=O)c12 [Compound 610] | > 1000
15 | CCc1cc(=O)oc2nc(OCc3ccccc3C#N)[nH]c(=O)c12 [Compound 611] | > 1000
16 | CCc1cc(=O)oc2nc(OCc3cccc(-n4cccc4)c3)[nH]c(=O)c12 [Compound 612] | > 1000
17 | CCc1cc(=O)oc2nc(OC[C@H]3CN([C@H](C)c4ccccc4)C(=O)O3)[nH]c(=O)c12 [Compound 613] | 100 to 1000

Row | Structure (SMILES) | EC50 [nM]
18 | CCc1cc(=O)oc2nc(OCCOc3ccccc3F)[nH]c(=O)c12 [Compound 614] | 100 to 1000
19 | O=c1cc(Cc2ccccc2)c2c(=O)[nH]c(OCc3ccccc3F)nc2o1 [Compound 616] | 100 to 1000
20 | CCc1cc(=O)oc2nc(OC[C@@H](OC)c3ccccc3)[nH]c(=O)c12 [Compound 618] | 100 to 1000
21 | CCc1cc(=O)oc2nc(OCc3cccc(N(C)C)c3)[nH]c(=O)c12 [Compound 619] | 100 to 1000
22 | CCc1cc(=O)oc2nc(OCCN3CCOC3=O)[nH]c(=O)c12 [Compound 620] | > 1000
23 | CCc1cc(=O)oc2nc(OCC(=O)N(CC)CC)[nH]c(=O)c12 [Compound 621] | 100 to 1000
24 | CCc1cc(=O)oc2nc(OCCOc3c(OC)cccc3OC)[nH]c(=O)c12 [Compound 622] | 100 to 1000
25 | CCc1cc(=O)oc2nc(OCC#Cc3ccccc3Cl)[nH]c(=O)c12 [Compound 623] | 0.001 to 100
26 | CCc1cc(=O)oc2nc(OCc3ccc(-n4cccn4)cc3)[nH]c(=O)c12 [Compound 624] | 100 to 1000
27 | CCc1cc(=O)oc2nc(OCc3ccncc3F)[nH]c(=O)c12 [Compound 625] | 100 to 1000
28 | CCc1cc(=O)oc2nc(OCC#Cc3cccc(Cl)c3)[nH]c(=O)c12 [Compound 626] | 0.001 to 100
29 | O=c1cc(Cc2ccccc2)c2c(=O)[nH]c(OCc3ccccc3)nc2o1 [Compound 627] | > 1000
30 | CCc1cc(=O)oc2nc(OCc3ccc(-n4cncn4)cc3)[nH]c(=O)c12 [Compound 628] | > 1000
31 | CCc1cc(=O)oc2nc(OCc3ccncc3Cl)[nH]c(=O)c12 [Compound 629] | 100 to 1000
32 | CCc1cc(=O)oc2nc(OCc3ccc(C#N)cc3)[nH]c(=O)c12 [Compound 630] | > 1000
33 | CCc1cc(=O)oc2nc(OC[C@H](C)OC)[nH]c(=O)c12 [Compound 632] | 100 to 1000
34 | CCc1cc(=O)oc2nc(OC[C@H](O)c3ccccc3)[nH]c(=O)c12 [Compound 633] | 100 to 1000

same assay, conditions: NA EC50 camp (nM), CHO cells expressing recombinant human NAR; forskolin-stimulated cAMP

Row | Structure (SMILES) | EC50 [nM]
35 | CCC#CCOc1nc2oc(=O)cc(Cc3ccccc3)c2c(=O)[nH]1 [Compound 615] | 100 to 1000
36 | CCc1cc(=O)oc2nc(OCC#CCO)[nH]c(=O)c12 [Compound 631] | 100 to 1000
